This is an account of results in PMC7022718, “Composition and Insecticidal Activity of Essential Oil of Bacopa caroliniana and Interactive Effects of Individual Compounds on the Activity” (Insects, 2019).

The subject of the assay is T1, acetylcholine esterase (AChE), crude, from rice weevil.
T1 construct: gene ace1; native, unpurified; supernatant of whole adult homogenate in phosphate buffer pH 7.4 (8775 g, 20 min)
The assay can be described thus: Ellman colorimetric assay, […] nm. In kind it is biochemical, Sitophilus oryzae. The conditions noted are these: crude enzyme; acetylthiocholine iodide 2.5 mM, pH 7.4, 35 °C, 15 min preincubation, compound in ethanol.
On to `CC12CCC(CC1)C(C)(C)O2` [1,8-Cineole], for which the “AChE-IC50 (μL mL^-1)” value is on record as 31.13 ± 2.20 µL mL^−1.

As for `C=CC(O)CCCCC` (stereo not drawn) [1-Octen-3-ol], the “AChE-IC50 (μL mL^-1)” value stood at 14.82 ± 0.12 µL mL^−1. The result for `CC1=CCC(O)(C(C)C)CC1` (stereo not drawn) [4-Terpineol] reads 11.29 ± 0.02 µL mL^−1; that for `C=C1CC[C@H]2O[C@]2(C)CC[C@@H]2[C@@H]1CC2(C)C` [Caryophyllene oxide], above 500 µL mL^−1. Regarding `CC(C)=CCCC(C)CCO` (stereo not drawn) [Citronellol], the “AChE-IC50 (μL mL^-1)” value came out at 86.08 ± 1.09 µL mL^−1. The result for `C=C(C)C1CC=C(C)CC1` (stereo not drawn) [Limonene] reads 9.57 ± 1.37 µL mL^−1; that for `C=CC(C)(O)CCC=C(C)C` (stereo not drawn) [Linalool], 44.33 ± 1.31 µL mL^−1. The same measure for `C=CC(C)(O)CCC=C(C)CCC=C(C)C` (stereo not drawn) [Nerolidol]: 331.24±21.55 µL mL^−1; for `C=C1CCC2(C(C)C)CC12` (stereo not drawn) [Sabinene]: 85.03 ± 0.20 µL mL^−1. Turning to `Cc1ccc(C(C)C)cc1` [p-Cymene], the “AChE-IC50 (μL mL^-1)” value is reported as above 500 µL mL^−1. The same measure for `CC1=CCC2CC1C2(C)C` (stereo not drawn) [α-Pinene]: 1.81 ± 0.20 µL mL^−1; for `CC1=CC=C(C(C)C)CC1` [α-Terpinene]: above 500 µL mL^−1; for `CC1=CCC(C(C)(C)O)CC1` (stereo not drawn) [α-Terpineol]: 18.39 ± 1.52 µL mL^−1. Turning to `CC1=CCC(=C(C)C)CC1` [α-Terpinolene], the “AChE-IC50 (μL mL^-1)” value stood at 1.10 ± 0.17 µL mL^−1.

As to `C=C1CC/C=C(\C)CC[C@@H]2[C@@H]1CC2(C)C` [β-Caryophyllene], the “AChE-IC50 (μL mL^-1)” value is given as above 500 µL mL^−1.

As to `C=CC(=C)CCC=C(C)C` [β-Myrcene], the “AChE-IC50 (μL mL^-1)” value is above 500 µL mL^−1.

On to `C=C1CCC2CC1C2(C)C` (stereo not drawn) [β-Pinene], for which the “AChE-IC50 (μL mL^-1)” value is above 500 µL mL^−1. The same measure for `CC1=CCC(C(C)C)=CC1` [γ-Terpinene]: above 500 µL mL^−1.
